SMILES strings stand for the structures. In brackets after ≈: the same amount, converted by molar mass. Like-named read-outs stand apart in the source and are kept apart here. Starred links: 1 amine or outer side, 2 acyl side, 3 side chain; linkers in the order of their positions; H or OH if unused. Positions of bridges follow the written chain, without caps; N, C: chain ends. Non-standard residues stand in square brackets, D forms with d. Residues, ends and D or L forms follow the SMILES beside them. X1 = CC(C)CCCCCCCCC[C@H](CC(=O)[*:1])O[*:2]

The test system of one data set is Aspergillus niger. In words: in vitro susceptibility test (MIC), fungal culture. The conditions noted are these: read-out: minimum inhibiting concentration (MIC). It counts as cell-based. The method, then:
(§1) To examine whether surfactin has antimicrobial activity, in vitro susceptibility test was conducted.
Aspergillus niger was inoculated onto the MEAIII plate and incubated at 25° C. for 48 hours, the colonies were scraped off into specific culture medium. Bacterial culture was spread onto the MEAIII plate after serial dilution and the number of colonies was calculated, the original concentration was determined to be 1×10^6 CFU/ml. An aliquot of 500 μl of the bacterial culture was add to 500 μl of MEB before diluting the concentration of bacterial culture to 5×10^5 CFU/ml.
(§2) An aliquot of 130 μl of the bacterial culture was added to each well of a 96-well plate, the concentration of bacterial culture was 5×10^5 CFU/ml, 20 μl of surfactin at different concentrations prepared by titration were added and incubated at 37° C. for 16 hours. A spectrophotometer was used to calculate the concentration of bacterial growth and the obtained data was compared with the original value (OD540=1), the concentration of the experimental group that equals to the original value is used as the minimum inhibiting concentration (MIC). Each group was prepared in triplicate and a control group was included.

Another data set has as its system Vibrio anguillarum. In words: in vitro susceptibility test (MIC). In kind it is cell-based. The conditions noted are these: 37° C., OD540, read-out: minimum inhibiting concentration (MIC). The method, then: as §1
(§3) Preparation of bacterial culture of Escherichia coli DH5α, Vibrio harveyi, Vibrio alginolyticus, Vibrio anguillarum, Vibrio salmonicida, Aeromonas hydrophila and Staphylococcus epidermidis by inoculation of these bacteria onto LBA (E. coli·DH5α) or TSA (+1.5% NaCl) and incubation at 37° C. for 16 hours. Later, the colonies were scraped off and dissolved in specific medium; the concentration was adjusted to OD540 of 1 (1×10^9 colonies/c.c. culture medium), 100 μl of bacterial culture were add to 900 μl of LB or TSB (+1.5% NaCl) to give a concentration of […].
as §2

The subject of another data set is Escherichia coli DH5α. In words: in vitro susceptibility test (MIC). It counts as cell-based. The conditions noted are these: E. coli, 37° C. The method, then:
as §1, §3, §2

For data set [1], the system named is Staphylococcus epidermidis. In words: in vitro susceptibility test (MIC). It counts as cell-based. The conditions noted are these: 37° C., OD540, read-out: minimum inhibiting concentration (MIC). The method, then: as §1, §3, §2
In another data set the test system is Vibrio salmonicida. In words: in vitro susceptibility test (MIC). In kind it is cell-based. The settings on record: 37° C., OD540, read-out: minimum inhibiting concentration (MIC). The method, then:
as §1, §3, §2

The next data set relates to Vibrio harveyi. In words: in vitro susceptibility test (MIC). It counts as cell-based. The conditions noted are these: 37° C., OD540, read-out: minimum inhibiting concentration (MIC). The method, then: as §1, §3, §2
A further data set concerns Vibrio alginolyticus. In words: in vitro susceptibility test (MIC). The settings on record: 37° C., OD540, read-out: minimum inhibiting concentration (MIC). In kind it is cell-based. The method, then: as §1, §3, §2
In a further data set the test system is Iridovirus. In words: effect of surfactin on morphology of virus particles (transmission electron microscope).
For data set [2] the following is noted: surfactin 20 μM; reduced from 72 mN/m; cited from earlier work.
The next data set deals with nervous necrosis virus. In words: effect of surfactin on morphology of virus particles (transmission electron microscope). The method, then:
Surfactin was dissolved in sterilized water and the solution was filtered with a 0.2 μm filter membrane, followed by dilution of dissolved surfactin in 1% FBS-L15 to give diluted surfactin solution at the concentrations of 40 μg/ml and […]. The surfactin treatment group: surfactin and virus in the volume ratio of 1:1 were mixed. Control group: 1% FBS-L15 culture medium with NNV culture were mixed and incubated at 28° C. for 1 day before examination under a transmission electron microscope (Hitachi H-600). An aliquot of 6 μl of the surfactin treatment group was dropped onto a copper mesh to allow precipitation of the virus for about 10 minutes before been stained in 1% phosphotungstic acid (PTA, Sigma) at pH 7.4. After staining, excess mixture was removed with filter paper and incubated at room temperature for 30 minutes. The sample was examined after the copper mesh was air-dried. The voltage used for transmission electron microscope was 75 KV and the exposure time of the film was 4 seconds. The removed negative film was placed on the rack and soaked in the developer D19 for 4 minutes to develop the image. After completion of development, the film was soaked in 0.33% glacial acetic acid to stop the reaction followed by 10 minutes in fixative. Finally, excess chemicals were removed by placing the film under running water for 60 minutes before drying.

For the next data set, the system named is Aeromonas hydrophila. In words: in vitro susceptibility test (MIC). It counts as cell-based. The conditions noted are these: 16 h, 37° C., OD540, read-out: minimum inhibiting concentration (MIC). The method, then: as §1, §3, §2
A further data set relates to bacterial culture. In words: in vitro susceptibility test (MIC), summary statement of the text. It counts as cell-based. The method, then:
as §1, §3, §2

With `CC(C)CCCCCCCCC[C@@H]1CC(=O)N[C@@H](CCC(=O)O)C(=O)N[C@@H](CC(C)C)C(=O)N[C@H](CC(C)C)C(=O)N[C@@H](C(C)C)C(=O)N[C@@H](CC(=O)O)C(=O)N[C@H](CC(C)C)C(=O)N[C@@H](CC(C)C)C(=O)O1` [surfactin produced by the high-yield mutant strain of Bacill] (EL[dL]VD[dL]L; linker N-C via X1), the MIC is reported as 128.7 µM (≈ 133 µg/mL) in the data set on Aspergillus niger; 96.5 µM (≈ 100 µg/mL) in the data set on Vibrio anguillarum (16 hours); 96.5 µM (≈ 100 µg/mL) in the data set with Escherichia coli DH5α (16 hours, OD540, read-out: minimum inhibiting concentration (MIC)); 96.5 µM (≈ 100 µg/mL) in [1] (16 hours); 96.5 µM (≈ 100 µg/mL) in the data set with Vibrio salmonicida (16 hours); 96.5 µM (≈ 100 µg/mL) with Vibrio harveyi (16 hours). The MIC in the data set on Vibrio alginolyticus (16 hours) is reported as 96.5 µM (≈ 100 µg/mL).

Consider `CC(C)CCCCCCCCC[C@@H]1CC(=O)N[C@@H](CCC(=O)O)C(=O)N[C@@H](CC(C)C)C(=O)N[C@H](CC(C)C)C(=O)N[C@@H](C(C)C)C(=O)N[C@@H](CC(=O)O)C(=O)N[C@H](CC(C)C)C(=O)N[C@@H](CC(C)C)C(=O)O1` [surfactin] (EL[dL]VD[dL]L; linker N-C via X1), for which the MIC in the data set on Aspergillus niger was 193 µM (≈ 200 µg/mL); with Aeromonas hydrophila, 129 µM (≈ 133 µg/mL); in the data set with Vibrio anguillarum (16 h), 129 µM (≈ 133 µg/mL); in the data set on Escherichia coli DH5α (Escherichia coli, 16 h, OD540, read-out: minimum inhibiting concentration (MIC)) it was 193 µM (≈ 200 µg/mL); in data set [1] (16 h) it was 129 µM (≈ 133 µg/mL); with Vibrio salmonicida (Aliivibrio salmonicida, 16 h), 129 µM (≈ 133 µg/mL). Further, the MIC in the data set with Vibrio harveyi (16 h) was found to be 129 µM (≈ 133 µg/mL); in the data set with Vibrio alginolyticus (16 h), 129 µM (≈ 133 µg/mL); in the data set with bacterial culture, 96.5 µM (≈ 100 µg/mL). Further, the “morphology of Iridovirus particles” value with Iridovirus (10 μg/ml surfactin + Iridovirus, FIG. 2B (B)) was “the appearance of said virus has changed”; with Iridovirus (40 μg/ml surfactin + Iridovirus, FIG. 2B (C)) it was “adhesion between surfactin and viruses is observed”. The “surface tension of water” value in [2] was 27 mN/m. In addition, the “morphology of nervous necrosis virus particles” value in the data set on nervous necrosis virus (40 μg/ml surfactin + nervous necrosis virus, FIG. 2A (D)) is recorded as “normal viral particles”; with nervous necrosis virus (100 μg/ml surfactin + nervous necrosis virus, FIG. 2A (E)), “abnormal viral particles”.

The record behind these values is US20160183556A1, “METHOD FOR PRODUCING FEED ADDITIVE CONTAINING SURFACTIN” (SAFT biotechnology com. LTD, priority 2014, published 2016).
